In experiment [1] the test system is GRA (B. subtilis xpt-pbuX guanine riboswitch C74U aptamer domain) (RNA, riboswitch) GGACAUAUAAUCGCGUGGAUAUGGCACGCAAGUUUCUACCGGGCACCGUAAAUGUCCGAUUAUGUCC
Kind of experiment: X-ray crystallography. Conditions: cocrystal structure, 1.6 Å.

Experiment [2] has the same test system. Kind of experiment: 2-aminopurine fluorescence titration. Conditions: 100 mM KCl, 10 mM MgCl2; 50 mM Tris-HCl pH 8.3; RNA titrated into 200 nM 2-aminopurine.
Experiment [3] has the same test system. As to the kind of experiment: 2-aminopurine displacement fluorescence competition. Conditions: 100 mM KCl, 10 mM MgCl2, 50 mM Tris-HCl pH 8.3.
The mark [4] stands for this setting: 2-aminopurine displaced (KL 140 nM), 243 nM RNA.

The structures appear in SMILES notation.

Results on seven compounds are retold here after article PMC3119931 (2011).

As for `CNc1ncnc2[nH]cnc12`, in experiment [1], the binding result is recorded as “yes”. The compound `Nc1ncc2[nH]cnc2n1` came in with a KL in experiment [2] of 140 nM. `Nc1nc(N)nc(Cl)n1`: the binding entry in experiment [3] (2-aminopurine displaced, highest concentration tested 120 μM) is on record as “no”.

As to `Nc1cc(N)nc(N)n1`, in experiment [3] (setting [4]), the binding constant is recorded as 0.014 ± 0.001 mM. As a reminder, the KD is the free concentration of one partner at which half of the binding sites on the other are occupied at equilibrium, for simple one-to-one binding. Turning to `Nc1ncnc(N)n1`, the KD in experiment [3] (setting [4]) came to 80 ± 20 µM. The same measure, in the same setting: under `Cc1nc(N)nc(N)n1` stands 110 ± 30 µM. On the same count and under the same terms, under `Nc1nc2[nH]nc(N)n2n1` stands 370 ± 40 µM.
